Laboratory results reported in PubChem BioAssay AID1963970 (Molecular Pharmacology Branch, DTP, NCI, 2024).

Test system: 931267-113-T-J1-PDC multicell spheroid viability
Assay: Anticancer human tumor 931267-113-T-J1-PDC patient-derived colon adenocarcinoma cell line growth inhibition [PI3K]
Conditions: for IC50: curve of first compound; for viability, T/C: stronger effect = lower value
How it was run: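 Viability of mixed-cell spheroids was determined after exposure to pairwise combinations, one partner being inavolisib, alpelisib, duvelisib or copanlisib. Highest tested concentration matched clinical Cmax where known and 10 microM where not, descending in half-log steps.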

[1] = second compound 0.00316 µM, first compound 0.0316 µM
[2] = second compound 0.00316 µM, first compound 0.1 µM
[3] = second compound 0.00316 µM, first compound 0.316 µM
[4] = second compound 0.00316 µM, first compound 1 µM
[5] = second compound 0.00316 µM, first compound 3.16 µM
[6] = second compound 0.00316 µM, first compound 10 µM
[7] = second compound 0.01 µM, first compound 0.0316 µM
[8] = second compound 0.01 µM, first compound 0.1 µM
[9] = second compound 0.01 µM, first compound 0.316 µM
[10] = second compound 0.01 µM, first compound 1 µM
[11] = second compound 0.01 µM, first compound 3.16 µM
[12] = second compound 0.01 µM, first compound 10 µM
[13] = second compound 0.0316 µM, first compound 0.0316 µM
[14] = second compound 0.0316 µM, first compound 0.1 µM
[15] = second compound 0.0316 µM, first compound 0.316 µM
[16] = second compound 0.0316 µM, first compound 1 µM
[17] = second compound 0.0316 µM, first compound 3.16 µM
[18] = second compound 0.0316 µM, first compound 10 µM
[19] = second compound 0.1 µM, first compound 0.0316 µM
[20] = second compound 0.1 µM, first compound 0.1 µM
[21] = second compound 0.1 µM, first compound 0.316 µM
[22] = second compound 0.1 µM, first compound 1 µM
[23] = second compound 0.1 µM, first compound 3.16 µM
[24] = second compound 0.1 µM, first compound 10 µM
[25] = second compound 0.316 µM, first compound 0.0316 µM
[26] = second compound 0.316 µM, first compound 0.1 µM
[27] = second compound 0.316 µM, first compound 0.316 µM
[28] = second compound 0.316 µM, first compound 1 µM
[29] = second compound 0.316 µM, first compound 3.16 µM
[30] = second compound 0.316 µM, first compound 10 µM
[31] = second compound 1 µM, first compound 0.0316 µM
[32] = second compound 1 µM, first compound 0.1 µM
[33] = second compound 1 µM, first compound 0.316 µM
[34] = second compound 1 µM, first compound 1 µM
[35] = second compound 1 µM, first compound 3.16 µM
[36] = second compound 1 µM, first compound 10 µM
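Note: viability read 7 days after compound addition.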

SMILES: C=CC(=O)N1CCN(c2nc(=O)n(-c3c(C)ccnc3C(C)C)c3nc(-c4c(O)cccc4F)c(F)cc23)C(C)C1 (stereo not drawn) + CC(Nc1ccc2c(c1)OCCn1cc(N3C(=O)OCC3C(F)F)nc1-2)C(N)=O
- IC50 (second compound 0.00316 µM): > 10 µM
- IC50 (second compound 0.01 µM): > 10 µM
- IC50 (second compound 0.0316 µM): > 10 µM
- IC50 (second compound 0.1 µM): > 10 µM
- IC50 (second compound 0.316 µM): > 10 µM
- IC50 (second compound 1 µM): > 10 µM
- viability, T/C [1]: 108%
- viability, T/C [2]: 106%
- viability, T/C [3]: 100%
- viability, T/C [4]: 114%
- viability, T/C [5]: 115%
- viability, T/C [6]: 107%
- viability, T/C [7]: 94.8%
- viability, T/C [8]: 98%
- viability, T/C [9]: 117%
- viability, T/C [10]: 118%
- viability, T/C [11]: 110%
- viability, T/C [12]: 106%
- viability, T/C [13]: 122%
- viability, T/C [14]: 105%
- viability, T/C [15]: 90.4%
- viability, T/C [16]: 109%
- viability, T/C [17]: 114%
- viability, T/C [18]: 106%
- viability, T/C [19]: 102%
- viability, T/C [20]: 100%
- viability, T/C [21]: 86.7%
- viability, T/C [22]: 102%
- viability, T/C [23]: 98%
- viability, T/C [24]: 97%
- viability, T/C [25]: 91.9%
- viability, T/C [26]: 87.1%
- viability, T/C [27]: 99.8%
- viability, T/C [28]: 88.8%
- viability, T/C [29]: 90.4%
- viability, T/C [30]: 72.2%
- viability, T/C [31]: 92.9%
- viability, T/C [32]: 74%
- viability, T/C [33]: 79%
- viability, T/C [34]: 80.7%
- viability, T/C [35]: 83.8%
- viability, T/C [36]: 71.4%

SMILES: CCN1CCN(Cc2ccc(Nc3ncc(F)c(-c4cc(F)c5nc(C)n(C(C)C)c5c4)n3)nc2)CC1 + CC(Nc1ccc2c(c1)OCCn1cc(N3C(=O)OCC3C(F)F)nc1-2)C(N)=O
- IC50 (second compound 0.00316 µM): > 1 µM
- IC50 (second compound 0.01 µM): > 1 µM
- IC50 (second compound 0.0316 µM): > 1 µM
- IC50 (second compound 0.1 µM): > 1 µM
- IC50 (second compound 0.316 µM): > 1 µM
- IC50 (second compound 1 µM): 0.452 µM
- viability, T/C (second compound 0.00316 µM, first compound 0.00316 µM): 95.5%
- viability, T/C (second compound 0.00316 µM, first compound 0.01 µM): 99.3%
- viability, T/C [1]: 102%
- viability, T/C [2]: 108%
- viability, T/C [3]: 99.3%
- viability, T/C [4]: 80.8%
- viability, T/C (second compound 0.01 µM, first compound 0.00316 µM): 108%
- viability, T/C (second compound 0.01 µM, first compound 0.01 µM): 96.7%
- viability, T/C [7]: 99.2%
- viability, T/C [8]: 91.5%
- viability, T/C [9]: 93.4%
- viability, T/C [10]: 80.7%
- viability, T/C (second compound 0.0316 µM, first compound 0.00316 µM): 105%
- viability, T/C (second compound 0.0316 µM, first compound 0.01 µM): 101%
- viability, T/C [13]: 95.2%
- viability, T/C [14]: 85.2%
- viability, T/C [15]: 86%
- viability, T/C [16]: 70.2%
- viability, T/C (second compound 0.1 µM, first compound 0.00316 µM): 92.8%
- viability, T/C (second compound 0.1 µM, first compound 0.01 µM): 97.8%
- viability, T/C [19]: 94.1%
- viability, T/C [20]: 79.7%
- viability, T/C [21]: 69.7%
- viability, T/C [22]: 60.9%
- viability, T/C (second compound 0.316 µM, first compound 0.00316 µM): 80.4%
- viability, T/C (second compound 0.316 µM, first compound 0.01 µM): 84.5%
- viability, T/C [25]: 79%
- viability, T/C [26]: 70.4%
- viability, T/C [27]: 62.5%
- viability, T/C [28]: 51.6%
- viability, T/C (second compound 1 µM, first compound 0.00316 µM): 86.7%
- viability, T/C (second compound 1 µM, first compound 0.01 µM): 79.4%
- viability, T/C [31]: 65.7%
- viability, T/C [32]: 59.2%
- viability, T/C [33]: 52%
- viability, T/C [34]: 46.3%

SMILES: Cn1ncc(Cl)c1-c1cc(C(=O)NC(CN)Cc2cccc(F)c2)sc1Cl (stereo not drawn) + CC(Nc1ccc2c(c1)OCCn1cc(N3C(=O)OCC3C(F)F)nc1-2)C(N)=O
- IC50 (second compound 0.00316 µM): 5.16 µM
- IC50 (second compound 0.01 µM): 5.26 µM
- IC50 (second compound 0.0316 µM): 5.05 µM
- IC50 (second compound 0.1 µM): 3.9 µM
- IC50 (second compound 0.316 µM): 4.09 µM
- IC50 (second compound 1 µM): 3.51 µM
- viability, T/C [1]: 94.7%
- viability, T/C [2]: 102%
- viability, T/C [3]: 85.5%
- viability, T/C [4]: 88.3%
- viability, T/C [5]: 71.1%
- viability, T/C [6]: 22.8%
- viability, T/C [7]: 98.3%
- viability, T/C [8]: 90.7%
- viability, T/C [9]: 91%
- viability, T/C [10]: 79.2%
- viability, T/C [11]: 70.9%
- viability, T/C [12]: 27.6%
- viability, T/C [13]: 103%
- viability, T/C [14]: 89.2%
- viability, T/C [15]: 94.8%
- viability, T/C [16]: 86.3%
- viability, T/C [17]: 66.1%
- viability, T/C [18]: 25.9%
- viability, T/C [19]: 110%
- viability, T/C [20]: 92.6%
- viability, T/C [21]: 92.5%
- viability, T/C [22]: 75.1%
- viability, T/C [23]: 61.1%
- viability, T/C [24]: 20.3%
- viability, T/C [25]: 80.8%
- viability, T/C [26]: 94.4%
- viability, T/C [27]: 76.4%
- viability, T/C [28]: 73.2%
- viability, T/C [29]: 60.1%
- viability, T/C [30]: 20.9%
- viability, T/C [31]: 82%
- viability, T/C [32]: 70.7%
- viability, T/C [33]: 80.7%
- viability, T/C [34]: 63.8%
- viability, T/C [35]: 54.7%
- viability, T/C [36]: 21.4%

SMILES: Cn1nccc1Nc1nccc(-c2ccn(C(CO)c3ccc(Cl)c(F)c3)c(=O)c2)n1 (stereo not drawn) + CC(Nc1ccc2c(c1)OCCn1cc(N3C(=O)OCC3C(F)F)nc1-2)C(N)=O
- IC50 (second compound 0.00316 µM): 8.42 µM
- IC50 (second compound 0.01 µM): 3.65 µM
- IC50 (second compound 0.0316 µM): 4.15 µM
- IC50 (second compound 0.1 µM): 2.89 µM
- IC50 (second compound 0.316 µM): 1.74 µM
- IC50 (second compound 1 µM): 1.09 µM
- viability, T/C [1]: 96.7%
- viability, T/C [2]: 98.6%
- viability, T/C [3]: 88.6%
- viability, T/C [4]: 81.2%
- viability, T/C [5]: 64.5%
- viability, T/C [6]: 47.4%
- viability, T/C [7]: 99%
- viability, T/C [8]: 92.4%
- viability, T/C [9]: 97.2%
- viability, T/C [10]: 79.9%
- viability, T/C [11]: 52.3%
- viability, T/C [12]: 37.2%
- viability, T/C [13]: 99.5%
- viability, T/C [14]: 91.5%
- viability, T/C [15]: 82.6%
- viability, T/C [16]: 74.3%
- viability, T/C [17]: 54.4%
- viability, T/C [18]: 33.1%
- viability, T/C [19]: 102%
- viability, T/C [20]: 86.1%
- viability, T/C [21]: 86.1%
- viability, T/C [22]: 69.8%
- viability, T/C [23]: 46.5%
- viability, T/C [24]: 25.9%
- viability, T/C [25]: 91.7%
- viability, T/C [26]: 76.2%
- viability, T/C [27]: 73%
- viability, T/C [28]: 61.8%
- viability, T/C [29]: 38.6%
- viability, T/C [30]: 18%
- viability, T/C [31]: 72.8%
- viability, T/C [32]: 76.5%
- viability, T/C [33]: 68.8%
- viability, T/C [34]: 51%
- viability, T/C [35]: 29.2%
- viability, T/C [36]: 17.7%
